Assay results from patent publication US7915299B2, “2-(2-hydroxyphenyl)benzimidazoles useful for treating obesity and diabetes” (High Point Pharmaceuticals, LLC, priority 2006, dated 2011).

Compound | melting point [°C]
Cc1ccc(C(C)(C)C)c(O)c1-c1nc2cc(C#N)ccc2[nH]1 [Example 4, 2-(3-tert-Butyl-2-hydroxy-6-methyl-phenyl)-1H-benzimidazole-5-carbonitrile] | 212 to 215
Cc1c(Cl)cc(C(C)(C)C)c(O)c1-c1nc2cc(OC(F)(F)F)ccc2[nH]1 [Example 7, 6-tert-Butyl-4-chloro-3-methyl-2-(5-trifluoromethoxy-1H-benzimidazol-2-yl)-phenol] | 243 to 244
Cc1c(Cl)cc(C(C)(C)C)c(O)c1-c1nc2cc(S(=O)(=O)C(F)(F)F)ccc2[nH]1 [Example 1, 6-tert-Butyl-4-chloro-3-methyl-2-(5-trifluoromethanesulfonyl-1H-benzimidazol-2-yl)-phenol] | 253 to 254
CCN(CC)S(=O)(=O)c1ccc2[nH]c(-c3c(C)c(Cl)cc(C(C)(C)C)c3O)nc2c1 [Example 6, 2-(3-tert-Butyl-5-chloro-2-hydroxy-6-methyl-phenyl)-1H-benzimidazole-5-sulfonic acid diethylamide] | 277 to 278

Results, then the compound that gave them:

melting point [°C] | Compound
218 to 220 | Cc1ccc(C(C)(C)C)c(O)c1-c1nc2ccc(S(=O)(=O)C(F)(F)F)cc2[nH]1 [Example 12, 6-tert-Butyl-3-methyl-2-(5-trifluoromethanesulfonyl-1H-benzimidazol-2-yl)-phenol]
235 to 236 | Cc1c(Br)cc(C(C)(C)C)c(O)c1-c1nc2cc(OC(F)(F)F)ccc2[nH]1 [Example 13, 6-tert-Butyl-4-bromo-3-methyl-2-(5-trifluoromethoxy-1H-benzimidazol-2-yl)-phenol]
245 to 247 | Cc1c(F)cc(C(C)(C)C)c(O)c1-c1nc2ccc(S(=O)(=O)C(F)(F)F)cc2[nH]1 [Example 11, 6-tert-Butyl-4-fluoro-3-methyl-2-(5-trifluoromethanesulfonyl-1H-benzimidazol-2-yl)-phenol]
210 to 211 | CSc1cc(C(C)(C)C)c(O)c(-c2nc3cc(S(=O)(=O)C(F)(F)F)ccc3[nH]2)c1C [Example 9, 6-tert-Butyl-3-methyl-4-methylsulfanyl-2-(5-trifluoromethanesulfonyl-1H-benzimidazol-2-yl)-phenol]
55 to 56 | COc1ccc(C(C)(C)C)c(O)c1-c1nc2cc(S(=O)(=O)C(F)(F)F)ccc2[nH]1 [Example 8, 6-tert-Butyl-3-methoxy-2-(5-trifluoromethanesulfonyl-1H-benzimidazol-2-yl)-phenol]
